In ChEMBL document CHEMBL5244269, “Improving metabolic stability and removing aldehyde oxidase liability in a 5-azaquinazoline series of IRAK4 inhibitors” (Bioorg Med Chem, 2020):

Assays:
[1] = molecular target: T1, Interleukin-1 receptor-associated kinase 4 (Homo sapiens, UniProt Q9NWZ3); experiment: Inhibition of IRAK4 (unknown origin) in presence of ATP by enzymatic assay
T1 sequence (Q9NWZ3 whole entry): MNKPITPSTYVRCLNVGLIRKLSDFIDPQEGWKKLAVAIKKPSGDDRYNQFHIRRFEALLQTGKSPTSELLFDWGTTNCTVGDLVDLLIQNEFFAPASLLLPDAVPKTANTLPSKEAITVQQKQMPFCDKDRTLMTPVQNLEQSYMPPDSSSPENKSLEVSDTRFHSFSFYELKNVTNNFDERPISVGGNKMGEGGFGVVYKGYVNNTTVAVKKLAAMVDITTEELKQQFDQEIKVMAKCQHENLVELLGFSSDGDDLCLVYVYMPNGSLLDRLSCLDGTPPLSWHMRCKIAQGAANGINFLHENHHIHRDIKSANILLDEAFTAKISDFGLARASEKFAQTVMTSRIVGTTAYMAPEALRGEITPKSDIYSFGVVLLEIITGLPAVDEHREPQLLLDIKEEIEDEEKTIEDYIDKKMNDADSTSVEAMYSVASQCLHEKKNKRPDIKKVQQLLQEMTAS

[2] = molecular target: T1, Interleukin-1 receptor-associated kinase 4; experiment: Inhibition of IRAK4 (unknown origin) phosphorylation by cell based assay
[3] = Lipophilicity, LogD at pH 7.4 of the compound by shake flask method; assay type: physicochemical; settings: buffer
[4] = Metabolic stability in human liver microsomes assessed as intrinsic clearance; assay type: ADME, Microsome; settings: read-out: CLH
[5] = Metabolic stability in human hepatocytes assessed as intrinsic clearance measured per 10^6 cells; assay type: ADME, cell-based, Hepatocyte; settings: read-out: CLH
[6] = Apparent permeability across apical to basolateral side in human Caco-2 cells measured for 360 mins by liquid scintillation counting based analysis; assay type: ADME, cell-based
[7] = Efflux ratio of apparent permeability basolateral to apical side over apical to basolateral side in human Caco-2 cells measured for 360 mins by liquid scintillation counting based analysis; assay type: ADME, cell-based
[8] = Metabolic stability in human cytosol assessed as intrinsic clearance; assay type: ADME, subcellular

Compound | IC50 [1] [µM] | IC50 [2] [µM] | logD [3] | microsomal CLint [4] [µL/min/mg] | hepatocyte CLint [5] [µL/min/1e6 cells] | Papp A→B at 6 h [6] [×10⁻⁶ cm/s] | efflux ratio at 6 h [7] | microsomal CLint [8] [µL/min/mg]
CN1CCC(n2cc(Nc3nc(OC4(C)CC4)c4nc(C(=O)N(C)C)ccc4n3)cn2)CC1 | 0.013 | 0.67 | 1.2 | < 4.5 | 1.7 | 1.5 | 17 | 
Cc1ncc(-c2ccc3nc(Nc4cnn(C5CCN(C)CC5)c4)nc(OC4(C)CC4)c3n2)cn1 | 0.0018 | 0.14 | 2.2 | 52 | 170 |  |  | 69
Cn1cc(Nc2nc(NC3(C)CC3)c3nc(CC#N)ccc3n2)cn1 | 0.002 | 0.11 | 2.7 |  | 71 |  |  | 
CC(=O)N1CCC(n2cc(Nc3nc(OC4CCOCC4)c4nc(CC#N)ccc4n3)cn2)CC1 | 0.032 | 2 | 1.2 | 5 |  |  |  | 
Cn1cc(Nc2nc(NC3COC3)c3nc(CC#N)ccc3n2)cn1 | 0.447 | 9.4 | 1.2 |  |  |  |  | 
Cc1ncc(-c2nc3c(OC4(C)CC4)nc(Nc4cnn([C@@H]5C[C@@H]6C[C@H]5CN6C)c4)nc3cc2F)cn1 | 0.004 | 0.31 | 1.7 | 15 | < 1 |  |  | 
CN1CCC(n2cc(Nc3nc(OC4(C)CC4)c4nc(-c5cn(C)nn5)ccc4n3)cn2)CC1 | 0.019 | 0.51 | 1.8 | 13 | < 1 |  |  | 
CN1CCC(n2cc(Nc3nc(OC4(C)CC4)c4nc(-c5cn(C)cn5)ccc4n3)cn2)CC1 | 0.73 | 6.8 | 1.8 | 14 |  |  |  | 
Cn1cc(Nc2nc(NC3CC3)c3nc(CC#N)ccc3n2)cn1 | 0.022 | 0.49 | 2.1 |  |  |  |  | 
CN1CCC(n2cc(Nc3nc(OC4(C)CC4)c4nc(-c5ccnnc5)ccc4n3)cn2)CC1 | 0.001 | 0.13 | 1.7 | 48 | 8.4 |  |  | 
Cc1ncc(-c2ccc3nc(Nc4cnn(C5CCN(C)CC5)c4)nc(OC4(C)CC4)c3n2)c(C)n1 | 0.007 | 0.26 | 2.1 | 23 | 3.4 |  |  | 2.2
CN1CCC(n2cc(Nc3nc(OC4(C)CC4)c4nc(-c5cccnc5)ccc4n3)cn2)CC1 | 0.001 | 0.12 | 2.6 | 130 |  |  |  | 
Cn1cc(Nc2nc(N[C@H]3CCOC3)c3nc(CC#N)ccc3n2)cn1 | 0.113 | 2.6 | 1.6 |  |  |  |  | 
Cc1ncc(-c2nc3c(OC4(C)CC4)nc(Nc4cnn(C5CC6(C5)CN(C)C6)c4)nc3cc2F)cn1 | 0.003 | 0.22 | 1.4 | < 3 | < 1 |  |  | 
CC(=O)N1CCC(n2cc(Nc3nc(NC4CCOCC4)c4nc(CC#N)ccc4n3)cn2)CC1 | 0.012 | 0.67 | 1.4 | 26 |  | 4.1 | 86 | 
Cc1ncncc1-c1nc2c(OC3(C)CC3)nc(Nc3cnn(C4CCN(C)CC4)c3)nc2cc1F | 0.015 | 0.48 | 2.2 | 53 | 5.5 |  |  | < 0.5
